Results reported in patent US11504362B2, “Liquid dosage forms to treat cancer” (Exelixis, Inc., priority 2017, dated 2022).
Counter-ions that a name gives are not always drawn.

Experiments:
clinical [1] = conditions: in vivo
Description: Pharmacokinetics: Serial blood, urine, and feces were collected at specified times following dosing.
All samples collected for radioactivity analysis were analyzed for total radioactivity.
Detailed reports of the bioanalytical methodologies and results accompany the clinical study report.
The other minor metabolite in plasma, p-Fluoroaniline, was analyzed by Exelixis using a validated LC/MS/MS method.
PK variables were computed using WinNonlin Professional, version 5.2.

clinical [2] = conditions: in vivo; remark: listed apart in the source
Description: Samples for 2 subjects were used for the investigation study. Therefore, only 6 subjects' PK profiles were determined using a radio-quantitation method.

Row | Structure (SMILES) | AUC0-24 (clinical [1]; human) | AUC0-72 (clinical [1]; human) | AUC0-t (clinical [1]; human) | AUC0-24 (clinical [2]; human) [h · ngEq/mL] | AUC0-72 (clinical [2]; human) [h · ngEq/mL] | AUC0-t (clinical [2]; human) [h · ngEq/mL] | Tmax (clinical [2]; human) [h] | AUC0-inf (clinical [1]; human) | t1/2 (clinical [1]; human) [h] | kel (clinical [1]) [h⁻¹] | AUC0-inf (clinical [2]; human) [h · ngEq/mL] | Cmax (clinical [2]; human) [ngEq/mL] | t1/2 (clinical [2]; human) [h] | ke1 (clinical [2]) [h⁻¹] | Plasma concentrations (clinical [1]; male, human) [ng/mL]
1 | COc1cc2nccc(Oc3ccc(NC(=O)C4(C(=O)O)CC4)cc3)c2cc1OS(=O)(=O)O [6-Demethyl Half-Dimer Sulfate] | 951 ± 377 (40) h · ng/mL | 7530 ± 3200 (42) h · ng/mL | 99500 ± 34500 (35) h · ng/mL | 2520 ± 1370 | 17400 ± 7000 | 89000 ± 32000 | ~71.99 | – | – | – | – | – | – | – | –
2 | COc1cc2nccc(Oc3ccc(NC(=O)C4(C(=O)O)CC4)cc3)c2cc1OC [XL184-Half-Dimer] | 1080 ± 341 (32) h · ng/mL | 3120 ± 976 (31) h · ng/mL | 6540 ± 1680 (26) h · ng/mL | 3610 ± 1350 | 8680 ± 3980 | 11100 ± 5890 | 1.49 | 6770 ± 1700 (25) h · ng/mL | 91.8 | 0.00807 | 16400 ± 1770 | 210 ± 73 | 57.9 ± 28.4 | 0.0136 ± 0.00672 | –
3 | COc1cc2c(Oc3ccc(NC(=O)C4(C(=O)Nc5ccc(F)cc5)CC4)cc3)cc[n+]([O-])c2cc1OC [XL184-N-Oxide] | 2030 ± 682 (34) h · ng/mL | 5610 ± 1940 (35) h · ng/mL | 10100 ± 3210 (32) h · ng/mL | 4300 ± 1460 | 10600 ± 3490 | 13300 ± 8360 | – | 10300 ± 3170 (31) h · ng/mL | 89.2 | 0.00846 | 20800 ± 7640 | – | 73.1 | 0.00976 ± 0.00212 | –
4 | Nc1ccc(F)cc1 [p-Fluoroaniline, Para-fluoroaniline] | – | – | – | – | – | – | – | – | – | – | – | – | – | – | < 2.0
